The assay concerns BCR-ABL(T315I) induced CML mice. The experiment in a line: Survival of BCR-ABL. It is filed as in vivo, mouse. As to conditions: BPTES 10 mg/kg monotherapy.

Take `O=C(Cc1ccccc1)Nc1nnc(CCSCCc2nnc(NC(=O)Cc3ccccc3)s2)s1` [BPTES]: the “mice still alive on day 60 post BMT” value is 3/9.

Values taken from publication PMC9486186 (Bioactive Materials, 2022).
